Consider twelve compounds from patent US4451470A, “Analgesic, antagonist, and/or anorectic 14-fluoromorphinans” (E. I. Du Pont de Nemours and Company, priority 1982, dated 1984).

In test [1] the test system is Straub tail induced by morphine in mice. To be noted: mouse; cited from earlier work.
Test [2] relates to Straub tail induced by morphine sulfate in mice. In words: Narcotic antagonist test (mouse anti-Straub tail test against morphine). It is filed as in vivo, mouse (female CF1 S). As to conditions: vs 30 mg/kg morphine sulfate i.p. How it is done: This property is the basis of a mouse test for narcotic antagonists.
Female CF1 S mice (fasted 17-21 hrs.), 5 per dose, were injected orally or subcutaneously with test drug at 0.67, 2, 6, 18, 54 and 162 mg/kg or other appropriate doses in 0.20 ml 1% Methocel® per mouse. Five minutes later, 30 mg/kg of morphine sulfate in 0.20 ml 1% Methocel® per mouse was given intraperitoneally. Starting ten minutes later, the mice were observed continuously for 5 minutes for evidence of Straub tail. Prevention of Straub tail during this observation period was taken as indication of narcotic antagonist ability.

Test [3] deals with writhing syndrome induced by phenylquinone in mice. Kind of test: Analgesic test (phenylquinone writhing, anti-PQW). Type of test: in vivo, mouse (female white mice). As to conditions: mouse; oral; phenylquinone i.p.; read-out: EFFECT ED50 Anti-PQW (Oral). As to the method:
A standard procedure for detecting and comparing the analgesic activity of compounds in this series for which there is good correlation with human efficacy is the standard phenylquinone writhing test modified from Siegmund, et al., Proc. Soc. Exp. Biol. Med., 95, 729 (1957). A test compound suspended in 1% Methocel® was given orally to fasted (17-21 hours) female white mice, 5-20 animals per double blind test. Aqueous phenylquinone (0.1% phenyl-p-benzoquinone) was injected intraperitoneally at 24 minutes later using 0.20 ml per mouse. […] The effective analgesic dose for 50% of the mice (ED50) was calculated by the moving average method of Thompson, W. R., Bact. Rev., 11, 115-145 (1947).
A general note: Writhing tests count abdominal constrictions after an irritant is injected.

Test [4] deals with Straub tail reaction in mice. In words: Narcotic test (Straub tail reaction). Type of test: in vivo, mouse (CF1 S female). As to conditions: 0.4 h, read-out: EFFECT ED50 Straub-tail (Oral). As to the method: Narcotic analgesics which have only agonist activity produce in mice an erection and arching of the tail (90° or more) which is referable to spinal cord stimulation. This Straub tail reaction is not produced by other analgesics, including the narcotic antagonists.
The method used was modified from Shemano, I., and Wendel, H., Tox. Appl. Pharm., 6, 334-9 (1964). CF1 S female mice (18-21 g), 10-20 mice per dose, were […] with log scaled doses of analgesic in 1% aqueous methylcellulose. A positive Straub tail response was recorded if a tail was erected 90° or more for 5 seconds at any time within 24 minutes after dosing. A quantal Straub tail ED50 was calculated by the moving average method [Thompson, W. R., Bact. Rev., 11, 115-145 (1947)].

The conditions of test [5]: chronic oral therapy; cited from earlier work.
[6] abbreviates: sc, read-out: EFFECT ED50 Anti-Straub Tail (s.c.).
Setting [7] is: mouse, oral, within 24 minutes after dosing.

Like-named read-outs stand apart in the source and are kept apart here.

Consider `C=CCN1CC[C@]23c4c5ccc(O)c4O[C@H]2[C@@H](O)C=C[C@H]3[C@H]1C5` [nalorphine], for which the “prevention of Straub tail induced by morphine” value in test [1] was “prevent the induction of Straub tail”.

A word on the ED50: it is the dose that gives a 50% effect, or the effect in half of the subjects. In the case of `COc1ccc2c3c1O[C@H]1C4(CCC5(F)C(C2)N(C)CCC315)OCCO4` (stereo partly shown) [Example 10], the results for the 50% effective dose (ED50) in test [2] (setting [6]), in test [3] and in test [4] (setting [7]) were greater than 135 mg/kg, 5 mg/kg and greater than 135 mg/kg, respectively.

For the compound `COc1ccc2c3c1O[C@H]1C4(CCC5(F)C(C2)N(CC2CC2)CCC315)OCCO4` (stereo partly shown) [Example 1], the results for the 50% effective dose (ED50) in test [2] (setting [6]), in test [3] and in test [4] (setting [7]) were 1.7 mg/kg, 42 mg/kg and greater than 135 mg/kg, respectively.

For `CN1CC[C@]23c4c5ccc(O)c4OC2C(=O)CC[C@@]3(F)[C@H]1C5` (stereo partly shown) [Example 7, 17-Methyl-14-fluoro-3-hydroxy-4,5-epoxymorphinan-6-one], the 50% effective dose (ED50) is greater than 81 mg/kg in test [2] (setting [6]); 2.4 mg/kg in test [3]; 18.7 mg/kg in test [4] (Mus musculus, po).

Turning to `O=C1CC[C@@]2(O)[C@H]3Cc4ccc(O)c5c4[C@@]2(CCN3CC2CC2)[C@H]1O5` [naltrexone], the “abstinence of opiate addicts” value in test [5] is on record as “remain abstinent”.

Take `O=C1CC[C@@]2(F)[C@H]3Cc4ccc(O)c5c4[C@@]2(CCN3CC2CC2)C1O5` (stereo partly shown) [Example 3, 17-(Cyclopropylmethyl)-4,5-epoxy-14-fluoro-3-hydroxymorphinan-6-one]: the ED50 in test [2] (oral, read-out: EFFECT ED50 Anti-Straub Tail (Oral)) is 0.09 mg/kg; in test [2] (setting [6]) it was 0.01 mg/kg; in test [3], greater than 135 mg/kg; in test [4] (Mus musculus, po), greater than 135 mg/kg.

In the case of `COc1ccc2c3c1O[C@H]1C(=O)CCC4(F)C(C2)N(C)CCC314` (stereo partly shown) [Example 11], the median effective dose (ED50) in test [2] (setting [6]) is greater than 135 mg/kg; in test [3], 6.3 mg/kg; in test [4] (setting [7]), 45 mg/kg.

`COc1ccc2c3c1O[C@H]1C(=O)CCC4(F)C(C2)N(CC2CCC2)CCC314` (stereo partly shown) [Example 9]: the ED50 in test [2] (setting [6]) was 6 mg/kg; in test [3], 27.6 mg/kg; in test [4] (setting [7]), greater than 135 mg/kg.

For the compound `COc1ccc2c3c1OC1C(=O)CC[C@@]4(F)[C@@H](C2)N(CC2CC2)CC[C@]314` (stereo partly shown) [Example 2, 17-(Cyclopropylmethyl)-4,5-epoxy-14-fluoro-3-methoxymorphinan-6-one], the ED50 was 0.33 mg/kg in test [2] (setting [6]); greater than 135 mg/kg in test [3]; greater than 135 mg/kg in test [4] (Mus musculus, po).

As to `Oc1ccc2c3c1O[C@H]1[C@@H](O)CCC4(F)C(C2)N(CC2CCC2)CCC314` (stereo partly drawn) [Example 6, 17-(Cyclobutylmethyl)-4,5-epoxy-14-fluoro-morphinan-3,6-diol (α-isomer)], the 50% effective dose (ED50) in test [2] (setting [6]) was 0.41 mg/kg; in test [3], 30.4 mg/kg; in test [4] (setting [7]), greater than 135 mg/kg.

`C=CCN1CC[C@]23c4c5ccc(O)c4O[C@H]2C(=O)CC[C@@]3(O)[C@H]1C5` [Naloxone]: the “prevention of Straub tail induced by morphine” value in test [1] is given as “prevent the induction of Straub tail”.

For the compound `COc1ccc2c3c1O[C@H]1C4(CCC5(F)C(C2)N(CC2CCC2)CCC315)OCCO4` (stereo partly shown) [Example 8], the median effective dose (ED50) was greater than 135 mg/kg in test [2] (setting [6]), 11.1 mg/kg in test [3] and greater than 135 mg/kg in test [4] (setting [7]).
